Experimental data as given in US4833156A, “Treating amnesia with a pyrrolidone derivative” (Kirin Beer Kabushiki Kaisha, priority 1987, dated 1989).

Experiments:
[1] = tested on: proline specific endopeptidase; experiment: Inhibition of proline specific endopeptidase activity (residual peptidase activity); format: biochemical; conditions: inhibitor concentration not given
Description: The inhibitory effects of the compounds represented by the formula (I) were determined by measuring the residual peptidase activity. The experimental procedure was agreed with the method by Tadashi Yoshimoto and Daisuke Tsuru: Tanpakushitsu, Kakusan and Koso, 29 (2), 127 (1984).

[2] = tested on: scopolamine induced amnesia in rats; experiment: Rat delayed-matching test (scopolamine-induced amnesia); format: in vivo, rat (SD, male, 150 to 300 g); conditions: for remission of scopolamine induced amnesia: oral, 20 min before test, (-)-scopolamine hydrochloride 0.06 mg/kg s.c., delay times 0.1, 4, 16, 32 s, FIG. 3 and FIG. 4
Text: An apparatus equipped with two lever switches on the respective sides of the front face of the inside of an operant experimental box (25×31×33 cm), red lamps just above respective levers and a white lamp at a further upper position was used for the experiment. A rat bred under restricted feeding (SD, male, 150 to 300 g) was placed in the apparatus. Either one of the red lamps arranged on the right and left sides was lit for 5 seconds, and, at a specific time (delayed time) after it was turned off, the white lamp at the center was lit. The system of the apparatus was so set that if the lever which was at the side of the red lamp having lit was pushed, a feed pellet (ca. 50 mg) was given as a correct choice, and if another lever was pushed no pellet was given as an incorrect choice. After the training had been conducted to ensure that, in the test of delay time being 0.1 sec, the correct choice rate was maintained at the level of 80% or more for three consecutive days, the test was conducted. In the test, delay times were set at 0.1, 4, 16 and 32 seconds, and, at each of the delay times, 6 runs were conducted at random (24 runs in total, 1 run/minute). […] N-(4'-chlorobenzenesulfonyl)-2-pyrrolidone and aniracetam were administered orally in the form of suspensions in 0.3% Tween 80 at 20 minutes before test.

[3] = tested on: cycloheximide (CXM)-induced amnesia in mice; experiment: Mouse step-down test (cycloheximide-induced amnesia); format: in vivo, mouse (ddY, male, 5 to 6 week old); conditions: conclusion for the mouse step-down test
Description: The test was carried out in accordance with the method described by Nabeshima et al.: Psychopharmacology, (1986) 89, 334-337. That is, a wooden platform (4×4×4 cm) was placed in the center on a floor of a stainless steel grid (30×30 cm), and the whole apparatus was surrounded with clear acrylic resin plates. In acquisition test, a mouse (ddY, male, 5 to 6 week old) was placed on the platform, and electric stimulus was applied for 20 seconds immediately after the mouse stepped down on the grid. Then the mouse was taken out of the apparatus and cycloheximide hydrochloride (30 mg/kg) was administered subcutaneously in order to induce amnesia. In the retention test, the mouse was again placed on the platform, and the time before the mouse stepped down on the grid was measured as the step-down latency. N-(4'-chlorobenzenesulfonyl)-2-pyrrolidone and aniracetam were individually suspended in 0.3% Tween 80 and administered orally at 20 minutes before acquisition test.

[4] = Acute toxicity, oral administration to mice; format: in vivo, mouse (ddY; conditions: mouse, in vivo, ddY male mice, 7 week old
Text: (§1) Acute toxicity was evaluted by oral administration of the compounds to ddY male mice (7 week old).

ddY male mice = experiment: Acute toxicity, oral administration to mice; format: in vivo, mouse (ddY; conditions: 7 week old, result in words
Text: as §1

Structure (SMILES): COc1ccc(C(=O)N2CCCC2=O)cc1 [Aniracetam, aniracetam, reference compound]
- Residual Activity [1]: 89.5
- remission of scopolamine induced amnesia [2]: did not remitted at all scopolamine induced amnesia

Structure (SMILES): Cc1ccc(S(=O)(=O)N2CCCC2=O)cc1 [Synthetic Example 1,2, N-(4'-toluenesulfonyl)-2-pyrrolidone]
- Residual Activity [1]: 47.4

Structure (SMILES): O=C1CCCN1S(=O)(=O)c1ccc(Cl)cc1 [Synthetic Example 3,4, N-(4'-chlorobenzenesulfonyl)-2-pyrrolidone]
- Residual Activity [1]: 51.3
- anti-amnestic effect compared with aniracetam [3]: exhibited an anti-amnestic effect and was more effective than aniracetam
- anti-amnestic effect compared with aniracetam ([2]; conclusion for the rat delayed-matching test): exhibited an anti-amnestic effect and was more effective than aniracetam
- remission of scopolamine induced amnesia [2]: showed remission of scopolamine induced amnesia at several dosages and delay times
- LD50 [4]: ≥ 2000 mg/kg
- safety (ddY male mice): High level of safety

Structure (SMILES): O=C1CCCN1S(=O)(=O)c1ccccc1 [Synthetic Example 5,6, N-benzenesulfonyl-2-pyrrolidone]
- Residual Activity [1]: 51.3
